Tested on: HCV-JFH-1
Assay: Chronic HCV-JFH-1 infection of Huh7-1 cells, inhibitor combinations, RT-qPCR 24-96 h (FIG. 3-5)
Format: cell-based, Hepatitis C virus (HCV)
Procedure: RT-qPCR analysis of intracellular HCV RNA levels in Huh7 cultures mock-treated, treated with ezetimibe (30 μM), PI (200 nM), IFN-α (100 U/ml), or indicated combinations thereof (n=3). Data presented are representative of multiple independent experiments.
FIG. 4A, Chronically infected Huh7-1 cell cultures (n=3) treated with ezetimibe (E), naringenin (N), interferon α (I), or combinations thereof, were harvested at 24, 48, 72 or 96 hours post-treatment, intracellular HCV levels were quantified by RT-qPCR, and are presented as HCV copies/μg RNA. FIG. 4B, Chronically infected Huh7-1 cell cultures (n=3) treated with ezetimibe (E), ferristatin (T), interferon α (I), or combinations thereof, were harvested at 24, 48, 72 or 96 hours post-treatment, intracellular HCV levels were quantified by RT-qPCR, and are presented as HCV copies/μg RNA.
Shown are the results of RT-qPCR analysis of intracellular HCV RNA levels in Huh7 cultures mock-treated, treated with ezetimibe (30 μM), polymerase inhibitor, RG7128 (1 μM), or a combination thereof (n=3).
For experiments analyzing the activity of ezetimibe in combination with a protease inhibitor, Huh7-1 cells were infected with HCV-JFH-1 and allowed to reach steady state levels of infection. The HCV-infected cells were seeded in a 96-well plate and treated with the following: medium alone, 30 μM ezetimibe, 200 nM ITMN5537, 100 μ/ml IFN-α, and combinations of the above drugs at the specified concentrations. Medium and drugs were replaced every 24 hours. Triplicate wells were harvested at 24, 48, 72 or 96 hours post-treatment, in 200 μl/well of 1×ABI lysis buffer and stored at −80° C. until RNA extraction.
Therefore, the therapeutic potential of an IFN-free antiviral cocktail was also investigated, using ezetimibe in combination with other direct acting inhibitors of HCV amplification, specifically an inhibitor of the HCV NS3/4A protease (ITMN 5537; Intermune, Brisbane, Calif.). Huh7-1 cells were infected with HCV-JFH-1 and allowed to reach steady state levels of infection. Cells were monotreated with protease inhibitor (PI) or ezetimibe or IFN alone or treated with combinations of PI+ezetimibe or PI+IFN or IFN+ezetimibe or a combination of all three inhibitors. Samples were harvested at 24, 48, 72 or 96 hours post-treatment, the intracellular RNA was extracted and RT-qPCR performed to quantify HCV copies.
Thus, parallel cultures of chronically infected Huh7-1 cells were established and subsequently treated with ezetimibe, naringenin or IFN-α, either alone or in combination. Treatments were replenished every 24 hours. Triplicate cultures of each treatment condition were harvested at 24, 48, 72 or 96 hours post-treatment and intracellular HCV levels were quantified by RT-qPCR (FIG. 4A). […] Thus, no evidence of synergy was observed when IFN-α was combined with an egress inhibitor that only blocks cell-free spread.
As an alternative method of determining the therapeutic importance of inhibiting HCV cell-to-cell spread, an inhibitor to TfR1 was used. TfR1 has also been identified as another host cell factor that is involved in cell-free entry of HCV into cells, but is not required for cell-to-cell-mediated HCV entry. Thus, unlike ezetimibe which inhibits both cell-free and cell-to-cell HCV spread, the TfR1 inhibitor, ferristatin, only blocks cell-free virus spread. Again, chronically infected Huh7-1 cell cultures were established and treated with ezetimibe (30 μM), ferristatin (50 μM), or IFN-α (100 U/ml), either alone or in combination and treatments were replenished every 24 hours. Intracellular HCV copies were quantified from triplicate cultures by RT-qPCR at 24, 48, 72 or 96 hours post-treatment (FIG. 4B).
Huh7-1 cells were infected with HCV-JFH-1 and allowed to reach steady state levels of infection. Cells were monotreated with HCV polymerase inhibitor RG7128 (1 μM) or ezetimibe (30 μM) alone or treated with a combination of RG7128 and ezetimibe. […]

SMILES	reduction of HCV levels (FIG. 5) (RG7128 1 μM, ezetimibe 30 μM, normalized to Mock)	reduction of HCV levels (FIG. 3) (ezetimibe 30 μM, PI 200 nM, IFN-α 100 U/ml)	decrease in intracellular HCV load (FIG. 4B) (ezetimibe 30 μM, ferristatin 50 μM, IFN-α 100 U/ml)	reduction of HCV copies (FIG. 4A) (ezetimibe, naringenin, IFN-α alone or in combination)	increase in intracellular HCV copies (FIG. 4A) (naringenin alone)
O=C1[C@H](CC[C@H](O)c2ccc(F)cc2)[C@@H](c2ccc(O)cc2)N1c1ccc(F)cc1 [ezetimibe, 1-(4-fluorophenyl)-(3R)-[3-(4-fluorophenyl)-(3S)-hydroxypropyl]-(45)-(4-hydroxyphenyl)-2-azetidinone]	did not reduce HCV levels	did not reduce HCV levels	neither ezetimibe nor ferristatin alone reduced intracellular HCV load	did not reduce HCV levels	–
O=C1C[C@@H](c2ccc(O)cc2)Oc2cc(O)cc(O)c21 [naringenin]	–	–	–	–	about 50%

Source: patent US9034863B2, “Compositions and methods for inhibiting entry of a hepatic virus” (The Board of Trustees of the University of Illinois, priority 2008, dated 2015)
